Like-named read-outs stand apart in the source and are kept apart here.
Target: T1, human ether-a-go-go-related-gene (hERG)-encoded potassium channel (Homo sapiens, UniProt Q12809)
T1 construct: expressed in transfected cells; host or cells: Human embryonic kidney (HEK) cells, grown under Geneticin G418 selection
Assay: hERG-encoded potassium channel inhibition test (whole-cell patch clamp, tail current)
Type: cell-based

[1] = HEK cells expressing the hERG-encoded channel, tail current after step from +40 mV to -50 mV, room temperature (~20 °C), read-out: IC50

T1 sequence (Q12809 whole entry): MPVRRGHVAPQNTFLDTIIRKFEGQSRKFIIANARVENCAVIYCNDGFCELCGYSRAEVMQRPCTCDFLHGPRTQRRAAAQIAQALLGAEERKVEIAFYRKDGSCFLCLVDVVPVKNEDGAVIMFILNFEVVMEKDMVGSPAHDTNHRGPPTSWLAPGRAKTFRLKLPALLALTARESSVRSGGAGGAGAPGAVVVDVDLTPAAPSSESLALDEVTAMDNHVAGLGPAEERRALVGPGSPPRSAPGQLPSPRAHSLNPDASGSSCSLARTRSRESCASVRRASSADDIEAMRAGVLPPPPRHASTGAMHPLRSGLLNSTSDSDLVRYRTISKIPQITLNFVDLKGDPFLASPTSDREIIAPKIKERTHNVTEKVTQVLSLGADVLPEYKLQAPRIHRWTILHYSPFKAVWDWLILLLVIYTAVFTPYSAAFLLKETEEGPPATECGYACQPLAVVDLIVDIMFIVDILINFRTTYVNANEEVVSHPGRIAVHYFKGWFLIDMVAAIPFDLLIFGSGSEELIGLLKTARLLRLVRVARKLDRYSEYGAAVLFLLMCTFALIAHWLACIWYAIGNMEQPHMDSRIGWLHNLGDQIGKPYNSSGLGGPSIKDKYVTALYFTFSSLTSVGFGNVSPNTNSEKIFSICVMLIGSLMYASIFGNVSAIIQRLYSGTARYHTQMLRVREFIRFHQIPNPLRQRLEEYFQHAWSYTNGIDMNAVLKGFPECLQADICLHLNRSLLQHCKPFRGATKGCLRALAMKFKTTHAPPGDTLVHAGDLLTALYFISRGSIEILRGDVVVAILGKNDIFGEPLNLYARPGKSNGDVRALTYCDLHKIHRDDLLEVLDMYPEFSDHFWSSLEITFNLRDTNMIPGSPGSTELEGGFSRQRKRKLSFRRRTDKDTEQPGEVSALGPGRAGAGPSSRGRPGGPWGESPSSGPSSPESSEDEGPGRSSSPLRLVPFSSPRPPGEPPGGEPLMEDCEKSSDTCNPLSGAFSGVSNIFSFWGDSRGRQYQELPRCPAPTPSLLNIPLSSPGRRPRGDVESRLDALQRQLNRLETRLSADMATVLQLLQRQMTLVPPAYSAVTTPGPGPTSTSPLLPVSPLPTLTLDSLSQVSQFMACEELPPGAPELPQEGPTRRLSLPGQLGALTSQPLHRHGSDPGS
Method: This assay determines the ability of a test compound to inhibit the tail current flowing through the human ether-a-go-go-related-gene (hERG)-encoded potassium channel.
One or two days before each experiment, the cells were detached from the tissue culture flasks with Accutase (TCS Biologicals) using standard tissue culture methods. They were then put onto glass coverslips resting in wells of a 12 well plate and covered with 2 ml of the growing media.
For each cell recorded, a glass coverslip containing the cells was placed at the bottom of a Perspex chamber containing bath solution (see below) at room temperature (~20 °C). This chamber was fixed to the stage of an inverted, phase-contrast microscope. Immediately after placing the coverslip in the chamber, bath solution was perfused into the chamber from a gravity-fed reservoir for 2 minutes at a rate of ~ 2 ml/min. After this time, perfusion was stopped.
A patch pipette made from borosilicate glass tubing (GC120F, Harvard Apparatus) using a P-97 micropipette puller (Sutter Instrument Co.) was filled with pipette solution (see hereinafter). The pipette was connected to the headstage of the patch clamp amplifier (Axopatch 200B, Axon Instruments) via a silver/silver chloride wire. The headstage ground was connected to the earth electrode. This consisted of a silver/silver chloride wire embedded in 3% agar made up with 0.85% sodium chloride.
The cell was recorded in the whole cell configuration of the patch clamp technique. Following "break-in", which was done at a holding potential of -80 mV (set by the amplifier), and appropriate adjustment of series resistance and capacitance controls, electrophysiology software (Clampex, Axon Instruments) was used to set a holding potential (-80 mV) and to deliver a voltage protocol. This protocol was applied every 15 seconds and consisted of a 1 s step to +40 mV followed by a I s step to -50 mV. The current response to each imposed voltage protocol was low pass filtered by the amplifier at 1 kHz. The filtered signal was then acquired, on line, by digitising this analogue signal from the amplifier with an analogue to digital converter. […]
The amplitude of the hERG-encoded potassium channel tail current following the step from +40 mV to -50 mV was recorded on-line by Clampex software (Axon Instruments). […]
The effect of each concentration of test compound was quantified by expressing the tail current amplitude in the presence of a given concentration of test compound as a percentage of that in the presence of vehicle.
Test compound potency (IC50) was determined by fitting the percentage inhibition values making up the concentration-effect to a four parameter Hill equation using a standard data-fitting package.

Row | Compound | IC50 [1] | IC50
1 | CC(=O)Nc1ccccc1OCC(O)CNC1CCN(Cc2ccc(Cl)cc2)CC1 (stereo not shown) [Comparison A] | 300 nM | –
2 | CC(=O)Nc1ccc(Cl)cc1OCC(O)CNC1CCN(Cc2ccc(Cl)cc2)CC1 (stereo not shown) [Comparison C] | 100 nM | –
3 | COc1ccc(NC(C)=O)c(OC[C@@](C)(O)CNC2CCN(Cc3ccc(Cl)cc3)CC2)c1 [Comparison B] | 300 nM | –
4 | CC(=O)Nc1ccc(O)cc1OC[C@@](C)(O)CNC1CCN(Cc2ccc(Cl)cc2)CC1 [Example 1, 4-({(2S)-3-[2-(acetylamino)-5-hydroxyphenoxy]-2-hydroxy-2-methylpropyl}ammonio)-1-(4-chlorobenzyl)piperidinium di(2,2,2-trifluoroacetate)] | – | 31600 nM
